This is an account of results in publication PMC9032561, “Simultaneous Inhibitory Effects of All-Trans Astaxanthin on Acetylcholinesterase and Oxidative Stress” (Marine Drugs, 2022).

This assay addresses T1, acetylcholinesterase (Electrophorus electricus, UniProt O42275).
T1 construct: gene ache
Description: Ellman assay with Lineweaver-Burk kinetics; supported by fluorescence quenching and circular dichroism. The format is biochemical. (In general: In Ellman's method for cholinesterases, released thiocholine reacts with DTNB.)

T1 sequence (O42275 24-633): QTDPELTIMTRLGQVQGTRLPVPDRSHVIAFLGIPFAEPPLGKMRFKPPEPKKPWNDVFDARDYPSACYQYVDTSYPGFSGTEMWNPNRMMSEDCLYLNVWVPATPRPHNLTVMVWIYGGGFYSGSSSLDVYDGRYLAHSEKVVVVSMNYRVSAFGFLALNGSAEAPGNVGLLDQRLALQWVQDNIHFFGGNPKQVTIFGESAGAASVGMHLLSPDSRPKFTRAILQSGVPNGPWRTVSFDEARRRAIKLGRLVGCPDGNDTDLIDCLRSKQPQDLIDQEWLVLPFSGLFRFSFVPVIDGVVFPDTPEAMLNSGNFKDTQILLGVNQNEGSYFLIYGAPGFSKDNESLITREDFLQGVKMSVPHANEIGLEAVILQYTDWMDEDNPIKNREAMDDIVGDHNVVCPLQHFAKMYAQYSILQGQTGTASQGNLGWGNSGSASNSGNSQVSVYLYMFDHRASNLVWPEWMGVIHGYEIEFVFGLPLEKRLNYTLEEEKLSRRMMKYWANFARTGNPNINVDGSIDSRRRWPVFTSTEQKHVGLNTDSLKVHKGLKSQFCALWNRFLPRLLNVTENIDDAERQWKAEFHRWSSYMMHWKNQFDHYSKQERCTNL

Turning to `CC1=C(/C=C/C(C)=C/C=C/C(C)=C/C=C/C=C(C)/C=C/C=C(C)/C=C/C2=C(C)C(=O)[C@@H](O)CC2(C)C)C(C)(C)C[C@H](O)C1=O` [all-trans astaxanthin], the IC50 was 8.64 µM.

By IC50 is commonly meant the concentration at which inhibition is half-maximal.
